Measured values from ChEMBL document CHEMBL3390836, “Mannich- and LedererManasse-based analogues of the natural product S-(+)-curcuphenol as cancer proliferation and migration inhibitors” (Medchemcomm, 2012).

Experiments:
Type in all cases: functional
NCI-H460 = experiment: Cytotoxicity against human NCI-H460 cells assessed as cell growth at 10^-4 M after 48 hrs by SRB assay relative to control; conditions: NCI-H460, 48 h, read-out: Activity
HCC 2998 [1] = experiment: Cytotoxicity against human HCC2998 cells assessed as cell growth at 10^-4 M after 48 hrs by SRB assay relative to control; conditions: HCC 2998, 48 h, read-out: Activity
KM12 = experiment: Cytotoxicity against human KM12 cells assessed as cell growth at 10^-4 M after 48 hrs by SRB assay relative to control; conditions: KM12, 48 h, read-out: Activity
[2] = Cytotoxicity against human UACC62 cells after 48 hrs by SRB assay; conditions: UACC-62, 48 h
RXF 393 [3] = experiment: Cytotoxicity against human RXF393 cells after 48 hrs by SRB assay; conditions: RXF 393, 48 h
MDA-MB-468 [4] = experiment: Cytotoxicity against human MDA-MB-468 cells after 48 hrs by SRB assay; conditions: MDA-MB-468, 48 h
A549 = experiment: Cytotoxicity against human A549 cells assessed as cell growth at 10^-8 M after 48 hrs by SRB assay relative to control; conditions: A549, 48 h, read-out: Activity
COLO 205 = experiment: Cytotoxicity against human COLO205 cells assessed as cell growth at 10^-8 M after 48 hrs by SRB assay relative to control; conditions: COLO 205, 48 h, read-out: Activity
SK-MEL-28 = experiment: Cytotoxicity against human SK-MEL-28 cells assessed as cell growth at 10^-4 M after 48 hrs by SRB assay relative to control; conditions: SK-MEL-28, 48 h, read-out: Activity
TK-10 [5] = experiment: Cytotoxicity against human TK10 cells assessed as cell growth at 10^-4 M after 48 hrs by SRB assay relative to control; conditions: TK-10, 48 h, read-out: Activity
[6] = Cytotoxicity against human UO31 cells assessed as cell growth at 10^-4 M after 48 hrs by SRB assay relative to control; conditions: UO-31, 48 h, read-out: Activity
[7] = Cytotoxicity against human Hs 578T cells assessed as cell growth at 10^-4 M after 48 hrs by SRB assay relative to control; conditions: read-out: Activity
T47D = experiment: Cytotoxicity against human T47D cells assessed as cell growth at 10^-4 M after 48 hrs by SRB assay relative to control; conditions: read-out: Activity
[8] = Cytotoxicity against human UACC62 cells assessed as cell growth at 10^-8 M after 48 hrs by SRB assay relative to control; conditions: UACC-62, 48 h, read-out: Activity
[9] = Cytotoxicity against human NCI-ADR-RES cells assessed as cell growth at 10^-8 M after 48 hrs by SRB assay relative to control; conditions: read-out: Activity
RXF 393 [10] = experiment: Cytotoxicity against human RXF393 cells assessed as cell growth at 10^-8 M after 48 hrs by SRB assay relative to control; conditions: RXF 393, 48 h, read-out: Activity
TK-10 [11] = experiment: Cytotoxicity against human TK10 cells assessed as cell growth at 10^-8 M after 48 hrs by SRB assay relative to control; conditions: TK-10, 48 h, read-out: Activity
[12] = Cytotoxicity against human PC3 cells assessed as cell growth at 10^-8 M after 48 hrs by SRB assay relative to control; conditions: PC-3, 48 h, read-out: Activity
HL-60(TB) = experiment: Cytotoxicity against human HL-60(TB) cells assessed as cell growth at 10^-7 M after 48 hrs by SRB assay relative to control; conditions: HL-60, 48 h, read-out: Activity
SF-268 = experiment: Cytotoxicity against human SF268 cells assessed as cell growth at 10^-7 M after 48 hrs by SRB assay relative to control; conditions: SF-268, 48 h, read-out: Activity
SNB-75 = experiment: Cytotoxicity against human SNB75 cells assessed as cell growth at 10^-7 M after 48 hrs by SRB assay relative to control; conditions: SNB-75, 48 h, read-out: Activity
[13] = Cytotoxicity against human OVCAR3 cells assessed as cell growth at 10^-7 M after 48 hrs by SRB assay relative to control; conditions: OVCAR-3, 48 h, read-out: Activity
[14] = Cytotoxicity against human OVCAR5 cells assessed as cell growth at 10^-7 M after 48 hrs by SRB assay relative to control; conditions: OVCAR-5, 48 h, read-out: Activity
[15] = Cytotoxicity against human SKOV3 cells assessed as cell growth at 10^-7 M after 48 hrs by SRB assay relative to control; conditions: SK-OV-3, 48 h, read-out: Activity
A498 = experiment: Cytotoxicity against human A498 cells assessed as cell growth at 10^-7 M after 48 hrs by SRB assay relative to control; conditions: A498, 48 h, read-out: Activity
CAKI-1 = experiment: Cytotoxicity against human Caki1 cells assessed as cell growth at 10^-7 M after 48 hrs by SRB assay relative to control; conditions: CAKI-1, 48 h, read-out: Activity
[16] = Cytotoxicity against human UO31 cells assessed as cell growth at 10^-7 M after 48 hrs by SRB assay relative to control; conditions: UO-31, 48 h, read-out: Activity
MDA-MB-231 = experiment: Cytotoxicity against human MDA-MB-231 cells assessed as cell growth at 10^-7 M after 48 hrs by SRB assay relative to control; conditions: MDA-MB-231, 48 h, read-out: Activity
HCC 2998 [17] = experiment: Cytotoxicity against human HCC2998 cells assessed as cell growth at 10^-6 M after 48 hrs by SRB assay relative to control; conditions: HCC 2998, 48 h, read-out: Activity
SW-620 = experiment: Cytotoxicity against human SW620 cells assessed as cell growth at 10^-6 M after 48 hrs by SRB assay relative to control; conditions: SW-620, 48 h, read-out: Activity
SF-539 = experiment: Cytotoxicity against human SF539 cells assessed as cell growth at 10^-6 M after 48 hrs by SRB assay relative to control; conditions: SF-539, 48 h, read-out: Activity
SK-MEL-2 = experiment: Cytotoxicity against human SK-MEL-2 cells assessed as cell growth at 10^-6 M after 48 hrs by SRB assay relative to control; conditions: SK-MEL-2, 48 h, read-out: Activity
786-0 = experiment: Cytotoxicity against human 786-0 cells assessed as cell growth at 10^-6 M after 48 hrs by SRB assay relative to control; conditions: 786-0, 48 h, read-out: Activity
ACHN = experiment: Cytotoxicity against human ACHN cells assessed as cell growth at 10^-6 M after 48 hrs by SRB assay relative to control; conditions: read-out: Activity
[18] = Cytotoxicity against human PC3 cells assessed as cell growth at 10^-6 M after 48 hrs by SRB assay relative to control; conditions: PC-3, 48 h, read-out: Activity
MDA-MB-468 [19] = experiment: Cytotoxicity against human MDA-MB-468 cells assessed as cell growth at 10^-6 M after 48 hrs by SRB assay relative to control; conditions: MDA-MB-468, 48 h, read-out: Activity

## CC(C)=CCC[C@H](C)c1ccc(C)c(CNCC2CCNCC2)c1O
NCI-H460
  growth at 100 µM: -68%
HCC 2998 [1]
  growth at 100 µM: -94%
KM12
  growth at 100 µM: -77%
[2]
  GI50: 4.24 µM
  LC50 (concentration killing 50% of cells): 16.4 µM
  TGI: 8.32 µM
RXF 393 [3]
  GI50: 3.7 µM
  LC50 (concentration killing 50% of cells): > 25 µM
  TGI: 13.4 µM
MDA-MB-468 [4]
  GI50: 3.33 µM
  LC50: 14.1 µM
  TGI: 6.86 µM
A549
  growth at 0.01 µM: 101%
COLO 205
  growth at 0.01 µM: 106%
SK-MEL-28
  growth at 100 µM: -91%
TK-10 [5]
  growth at 100 µM: -15%
[6]
  growth at 100 µM: -29%
[7]
  growth at 100 µM: 23%
T47D
  growth at 100 µM: -73%
[8]
  growth at 0.01 µM: 97%
[9]
  growth at 0.01 µM: 100%
RXF 393 [10]
  growth at 0.01 µM: 101%
TK-10 [11]
  growth at 0.01 µM: 92%
[12]
  growth at 0.01 µM: 97%
HL-60(TB)
  growth at 0.1 µM: 101%
SF-268
  growth at 0.1 µM: 97%
SNB-75
  growth at 0.1 µM: 90%
[13]
  growth at 0.1 µM: 104%
[14]
  growth at 0.1 µM: 96%
[15]
  growth at 0.1 µM: 93%
A498
  growth at 0.1 µM: 74%
CAKI-1
  growth at 0.1 µM: 94%
[16]
  growth at 0.1 µM: 86%
MDA-MB-231
  growth at 0.1 µM: 101%
HCC 2998 [17]
  growth at 1 µM: 99%
SW-620
  growth at 1 µM: 99%
SF-539
  growth at 1 µM: 92%
SK-MEL-2
  growth at 1 µM: 116%
786-0
  growth at 1 µM: 85%
ACHN
  growth at 1 µM: 92%
[18]
  growth at 1 µM: 101%
MDA-MB-468 [19]
  growth at 1 µM: 90%

## CC(C)=CCC[C@H](C)c1ccc(C)c2c1OCN(CC1CCNCC1)C2
NCI-H460
  growth at 100 µM: -94%
HCC 2998 [1]
  growth at 100 µM: -94%
KM12
  growth at 100 µM: -90%
[2]
  GI50: 15.5 µM
  LC50 (concentration killing 50% of cells): 57.6 µM
  TGI: 29.9 µM
RXF 393 [3]
  GI50: 9.2 µM
  LC50 (concentration killing 50% of cells): 88.3 µM
  TGI: 21.7 µM
MDA-MB-468 [4]
  GI50: 5.01 µM
  LC50: 53.1 µM
  TGI: 18.4 µM
A549
  growth at 0.01 µM: 95%
COLO 205
  growth at 0.01 µM: 109%
SK-MEL-28
  growth at 100 µM: -98%
TK-10 [5]
  growth at 100 µM: -87%
[6]
  growth at 100 µM: -86%
[7]
  growth at 100 µM: -75%
T47D
  growth at 100 µM: -70%
[8]
  growth at 0.01 µM: 95%
[9]
  growth at 0.01 µM: 104%
RXF 393 [10]
  growth at 0.01 µM: 86%
TK-10 [11]
  growth at 0.01 µM: 118%
[12]
  growth at 0.01 µM: 102%
HL-60(TB)
  growth at 0.1 µM: 91%
SF-268
  growth at 0.1 µM: 99%
SNB-75
  growth at 0.1 µM: 85%
[13]
  growth at 0.1 µM: 105%
[14]
  growth at 0.1 µM: 87%
[15]
  growth at 0.1 µM: 98%
A498
  growth at 0.1 µM: 82%
CAKI-1
  growth at 0.1 µM: 108%
[16]
  growth at 0.1 µM: 94%
MDA-MB-231
  growth at 0.1 µM: 101%
HCC 2998 [17]
  growth at 1 µM: 104%
SW-620
  growth at 1 µM: 103%
SF-539
  growth at 1 µM: 104%
SK-MEL-2
  growth at 1 µM: 120%
786-0
  growth at 1 µM: 99%
ACHN
  growth at 1 µM: 106%
[18]
  growth at 1 µM: 103%
MDA-MB-468 [19]
  growth at 1 µM: 99%
